What was measured:
[1] = i.v. AP; cited from earlier work
[2] = tested on: dissociated hypothalamic cells (medial preoptic area); test: Perforated patch recording of spontaneous miniature inhibitory postsynaptic currents (mIPSCs); assay type: cell-based, rat; settings: 30 and 100 nM AP, holding potential −11 mV, n = 5, p < 0.05
Description: For the patch clamp studies, male Sprague-Dawley rats (n = 5, weight < 130 g) were housed at two or four rats per cage at 22 °C and with artificial daylight. Rats had free access to water and standard food. The regional ethics committee for animal research approved the experimental protocols. All procedures including animals were conducted in accordance with the ethical guidelines set by the European Union Directive 2010/63/EU for animal experiments.
Electrophysiological experiments: The methods used for electrophysiological recording and cell preparation have been described in detail elsewhere. A summary of the procedures is given below. […]
Protocol and analysis: A standard protocol was used for the experiments. Firstly, the current was recorded in the control solution (EC solution) for 30–60 s, followed by a 60–300 s test period with or without AP. The spontaneous miniature inhibitory postsynaptic currents (mIPSCs) were detected by visual inspection of current changes. […] The time-course and amplitude of the currents were measured semi-manually by using cursors and were fitted to an exponential decay curve by the curve-fitting routine of the pCLAMP software (Axon Instruments, Foster City, CA, USA). […] All the mIPSC values from the treatment period of the recorded cell (n = 6–11 events) were pooled and the mean was subjected to statistical analysis. […]

[3] = molecular target: T1, human α5β3γ2L GABAA receptors expressed in HEK-293 cells (Homo sapiens, UniProt P28472+P31644); test: Whole-cell patch clamp of GABA/THDOC-evoked currents, extra-synaptic protocol (Dynaflow); assay type: cell-based
T1 construct: The coding regions of the human GABAA receptor subunits were then amplified by PCR; expressed in transfected cells; host or cells: HEK-293 (permanently transfected, pcDNA3.1 vectors, CMV promoter)
T1 sequence (P31644 32-462): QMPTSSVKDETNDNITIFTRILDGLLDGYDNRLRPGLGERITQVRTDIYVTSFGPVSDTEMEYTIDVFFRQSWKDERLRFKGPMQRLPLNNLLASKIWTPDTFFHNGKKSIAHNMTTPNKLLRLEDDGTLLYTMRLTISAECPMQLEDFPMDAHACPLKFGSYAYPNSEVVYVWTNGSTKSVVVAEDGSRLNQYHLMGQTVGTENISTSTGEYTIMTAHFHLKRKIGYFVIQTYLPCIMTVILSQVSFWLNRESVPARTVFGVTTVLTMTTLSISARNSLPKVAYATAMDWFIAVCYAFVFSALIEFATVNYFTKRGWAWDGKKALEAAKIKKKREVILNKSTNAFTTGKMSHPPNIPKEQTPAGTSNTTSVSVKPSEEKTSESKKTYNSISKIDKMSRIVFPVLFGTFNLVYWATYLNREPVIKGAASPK
T1 sequence (P28472 26-473 isoform P28472-2 limits assumed): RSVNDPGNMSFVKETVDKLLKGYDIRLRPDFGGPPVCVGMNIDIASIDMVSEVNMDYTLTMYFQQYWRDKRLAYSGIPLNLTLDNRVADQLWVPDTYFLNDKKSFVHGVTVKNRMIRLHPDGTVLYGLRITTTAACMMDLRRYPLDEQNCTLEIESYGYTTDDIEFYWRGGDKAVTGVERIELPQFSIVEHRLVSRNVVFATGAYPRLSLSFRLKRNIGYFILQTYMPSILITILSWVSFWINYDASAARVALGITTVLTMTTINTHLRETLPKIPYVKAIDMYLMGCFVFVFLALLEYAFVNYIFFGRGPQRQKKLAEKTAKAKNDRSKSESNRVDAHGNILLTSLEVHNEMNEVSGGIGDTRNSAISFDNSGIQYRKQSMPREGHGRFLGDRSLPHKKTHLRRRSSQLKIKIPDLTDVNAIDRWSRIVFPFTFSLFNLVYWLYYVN
T1 sequence (P18507 40-475 partner): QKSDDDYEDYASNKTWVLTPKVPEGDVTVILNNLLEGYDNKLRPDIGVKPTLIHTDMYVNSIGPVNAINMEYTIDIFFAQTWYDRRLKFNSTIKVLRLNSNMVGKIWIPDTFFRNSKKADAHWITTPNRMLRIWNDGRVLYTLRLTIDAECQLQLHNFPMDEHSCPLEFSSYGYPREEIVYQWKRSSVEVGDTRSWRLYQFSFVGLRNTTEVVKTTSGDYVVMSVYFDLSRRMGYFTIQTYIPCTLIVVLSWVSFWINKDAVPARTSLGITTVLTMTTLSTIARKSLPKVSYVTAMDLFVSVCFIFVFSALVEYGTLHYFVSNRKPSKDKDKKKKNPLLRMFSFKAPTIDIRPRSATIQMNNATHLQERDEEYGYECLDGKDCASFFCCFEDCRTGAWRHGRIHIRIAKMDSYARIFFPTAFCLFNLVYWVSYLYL
Text: Wild-type HEK-293 cells (passage 4, originating from Pasteur Institute, Paris, France) were permanently transfected with vectors including the human CMV promoter for the constitutive expression of the human α5, β3, and γ2L GABAA receptor subunits (α5β3γ2L) or the human α1, β2, and γ2L GABAA receptor subunits (α1β2γ2L). The production of the plasmids used in the sub-cloning of the different subunits is published in Rahman et al..
The electrophysiological recordings from HEK-293 cells were performed with the whole-cell voltage clamp technique, at room temperature (21–23 °C). After compensation for liquid junction potential, a steady holding potential of −17 mV was used in all experiments. Patch pipettes were pulled from borosilicate glass (Bergman Labora AB, Danderyd, Sweden) and polished to a resistance of 2–5 MΩ when filled with intracellular solution and immersed in a bath (extracellular) solution (for solutions, see below). The pipette tips were filled by immersion in standard intracellular solution and subsequent back-filling with intracellular solution. The recordings were made using an Axopatch 200B amplifier and a Digidata 1322A (Axon Instruments, Foster City, CA, USA) controlled via a Pentium processor-based personal computer. Data were acquired using the pCLAMP software sampled at 10 kHz, filtered at 2–10 kHz, and analyzed with Clampfit (versions 9.0, both from Axon Instruments, Foster City, CA, USA). A series resistance between the pipette and cell membrane not higher than 20 MΩ was accepted. No series resistance compensation was used. The stability of series resistance was monitored repeatedly from the time course of capacitative transients during the experiments. The measured liquid junction potential between extracellular and intracellular solutions was subtracted from all data presented, as previously described. All experiments were performed at room temperature (21–23 °C).
In all electrophysiological experiments, tetrahydro-deoxycorticosterone (THDOC) was used as a positive GABAA receptor steroid modulator (PAM) to mimic the effect of AP on central GABAA channels. […] THDOC (Sigma Chemical Co., St. Louis, MO, USA) and GR3027 (3α-ethynyl, 3β-hydroxyl, 5α-androstan-17-oxime, golexanolone, Umecrine Cognition AB, Stockholm, Sweden) were dissolved in dimethyl sulfoxide (DMSO) using ultrasound, for the preparation of solutions containing a final DMSO concentration of 0.1%. GR3027 was discovered within a series of molecules developed and patented by T. Bäckström and G. Ragagnin, (patent WO 2008/063128). All solutions were complemented with DMSO to achieve the same final concentration as in the steroid-containing test solution. GABA (Sigma Chemical Co., St. Louis, MO, USA) was first prepared as a stock solution (dissolved in EC with ultrasonic treatment) to the desired concentrations, with the corresponding final concentrations of test solutions (30 µM and 0.3 µM; see protocols below). GABA was added to the experimental solution without a change in osmolarity.
The experimental protocols were designed to mimic the physiological conditions of the tonic (extra-synaptic) and phasic (synaptic) activation of GABAA receptors observed in central neurons, depending on the subunit compositions, respectively. GABA-evoked currents in HEK-293 cells expressing extra-synaptic (α5β3γ2L) or synaptic (α1β2γ2L) types of GABAA receptors were studied using the conventional whole-cell patch clamp technique. To mimic the physiological GABA exposure, the HEK-293 cells expressing α1β2γ2L GABAA receptors were exposed to short applications (40 ms) of 30 µM GABA, whereas HEK-293 cells expressing α5β3γ2L GABAA receptors were exposed to prolonged applications (6 s) of 0.3 µM GABA, either in the absence or presence of THDOC and/or GR3027.

Compound | Concentration in brain tissue after i.v. injections giving acute memory and learning disturbances [1] | AUC of spontaneous miniature inhibitory postsynaptic currents vs vehicle [2] | EC50 ([3]; EC50 of THDOC effect (outward shift in baseline holding current, direct activation), THDOC 30-300 nM, 0.3 µM GABA 6 s protocol, holding potential −17 mV) | THDOC Emax, % change in peak amplitude at 0.3 µM GABA ([3]; THDOC 0.01-1 µM + 0.3 µM GABA + 1 µM GR3027) | THDOC Emax, % change in peak amplitude at 0.3 µM GABA ([3]; THDOC 0.01-1 µM + 0.3 µM GABA + 3 µM GR3027) | THDOC Emax, % change in peak amplitude at 0.3 µM GABA ([3]; THDOC 0.01-1 µM + 0.3 µM GABA, no GR3027) | Emax of THDOC effect (outward shift in baseline holding current, direct activation) ([3]; THDOC 30-300 nM, 0.3 µM GABA 6 s protocol) | EC50 ([3]; THDOC EC50, enhancement of GABA-evoked peak amplitude, THDOC 0.01-1 µM + 0.3 µM GABA + 1 µM GR3027) | EC50 ([3]; THDOC EC50, enhancement of GABA-evoked peak amplitude, THDOC 0.01-1 µM + 0.3 µM GABA + 3 µM GR3027) | EC50 ([3]; THDOC EC50, enhancement of GABA-evoked peak amplitude, THDOC 0.01-1 µM + 0.3 µM GABA, no GR3027)
CC(=O)[C@H]1CC[C@H]2[C@@H]3CC[C@H]4C[C@H](O)CC[C@]4(C)[C@H]3CC[C@]12C [AP, 3α-OH-5α-pregnan-20-one] | 1 to 2 µM | significantly higher | – | – | – | – | – | – | – | –
C[C@]12CC[C@@H](O)C[C@@H]1CC[C@@H]1[C@@H]2CC[C@]2(C)[C@@H](C(=O)CO)CC[C@@H]12 [THDOC, 3α,21-dihydroxy-5α-pregnan-20-one, reference compound] | – | – | 0.032 µM | 489% | 482% | 687% | 145% | 0.22 µM | 0.35 µM | 0.19 µM

— PMC10604444, “Extra-Synaptic GABAA Receptor Potentiation and Neurosteroid-Induced Learning Deficits Are Inhibited by GR3027, a GABAA Modulating Steroid Antagonist” (Biomolecules, 2023)
